Patent US20210252015A1, “CERTAIN (2S)-N-[(1S)-1-CYANO-2-PHENYLETHYL]-1,4-OXAZEPANE-2-CARBOXAMIDES FOR TREATING INFLAMMATORY BOWEL DISEASE” (Insmed Incorporated, priority 2018, published 2021)

Legend:
neutrophil elastase (NE) = assay: Bone marrow neutrophil elastase (NE) activity in lysates from mice of Example 1A; type: in vivo, C57BL/6 mice; settings: vs vehicle treated control group
Description: Following euthanasia, bone marrow (from both femurs and tibias) were collected, lysed, and then snap frozen. The frozen tissue was stored at −80° C.
Bone Marrow Neutrophil Activity: The ability of INS1007 to reduce neutrophil activation in DSS-induced colitis in C57BL/6 mice was evaluated. The neutrophil activity of bone marrow extracts taken from the euthanized mice of Example 1A was observed.
All animals from Example 1A had both femurs and tibias removed and bone marrow was aspirated out with ice-cold using Roswell Park Memorial Institute (RPMI) buffer. Cell pellets were collected after red blood cell lysis and wash with PBS. […]
For neutrophil elastase (NE) activity assay, bone marrow cell lysates were added to 96-well black plate and incubated for 15 minutes in the presence of DMSO or NE inhibitor (Abcam, Cat #ab142154). […] The resulting fluorescence was measured at 350 nm excitation and 450 nm emission in a kinetic mode by reading every 5 minutes for up to 3 hours at 37° C. The fluorescence was read using a BioTek Synergy plate reader. The reaction rate was calculated with the initial slopes of the linear range and a standard curve for the natural mouse elastase amounts were plotted against their slopes. The net NE activity (in the unit of natural mouse elastase amount) by subtracting the NE inhibitor control wells from non-inhibited well were calculated based on the standard curve.

[1] = tested on: colitis induced by the adoptive transfer of sorted naïve T cells into RAG2−/− mice; assay: Adoptive T-Cell Transfer Colitis Model, Example 2 (survival, endoscopy, stool consistency, body weight); type: in vivo
Description: The efficacy of INS1007 in the treatment of colitis induced by the adoptive transfer of sorted naïve T cells into RAG2^−/− mice (“Adoptive T-Cell Transfer Colitis Model”) was evaluated. The Adoptive T-Cell Transfer Colitis Model is an immunological animal model of colitis that provides focused and detailed examination of T cell-mediated pathological mechanisms, and generally responds well to established clinical therapies such as anti-TNFα. The model is described in detail in D. V. Ostanin, et al., T cell transfer model of chronic colitis: concepts, considerations, and tricks of the trade. Am. J. Physiol. Gastrointest. Liver Physiol. 2009; 296(2): G135-46, which is hereby incorporated by reference in its entirety for all purposes.
Example 2 evaluated the effectiveness of INS1007 dosed at 0.3 mg/kg, 1.0 mg/kg, 3.0 mg/kg and 10 mg/kg in the Adoptive T-Cell Transfer Colitis Model. Vehicle (negative control) and an anti-p40 mAb antibody (positive control) were also evaluated.
Mice: Ninety-five (95) male RAG2^−/− mice (n=95) with an average starting body weight (±SEM) of 21.3±0.12 g were obtained from Taconic Biosciences (Germantown, N.Y.). Animals were acclimatized prior to study commencement. During this period, the animals were observed daily in order to reject any that presented in poor condition. Animals were fed with 5053 sterile rodent diet and water was provided ad libitum.
INS1007 Solutions: INS1007 was diluted with 0.5% Hydroxypropylmethylcellulose in Citrate buffer w/0.1% Tween 80 (pH 3.0). Solutions were stored at 4° C. INS1007 solutions were discarded after 3 days and fresh solutions were prepared.
Anti-p40 mAb solution: Anti-mouse IL-12 p40 (Clone: C17.8) obtained from BioXCell (Cat #: BE0051) was diluted with phosphate buffered saline. Solutions were stored at 4° C. Anti-mouse IL-12 p40 solutions were discarded after 7 days and fresh solutions were prepared.
Groups 1-2 were negative controls; groups 3-6 were treated with INS 1007 and Group 7 was treated with Anti-p40 mAb.
The study included two phases: a T-cell transfer colitis-induction period (T-cell engraftment in FIG. 14) and a treatment period (Veh/1007 TX in FIG. 14). Colitis was induced on Day 0 in 90 RAG2^−/− mice by IP injection (200 μL) of 0.5×10^6 CD44^−/CD62L^+ T-cells (in PBS) isolated and purified from C57Bl/6 […]. Donor cells were processed as follows. Whole spleens were excised from donor C57BL/6 mice and were immediately placed ice-cold PBS. The spleens were dissociated to yield a single cell suspension and the red blood cells were lysed. Spleens were then processed for CD4+ enrichment prior to CD44-CD62L^+ sorting using Miltenyi MACS columns.
Animals in Groups 1-6 were dosed via oral gavage (PO) twice daily (BID) from Days 14 to 41 with INS1007 Solution or vehicle, as indicated in Table 4. Animals in Group 7 were dosed via intraperitoneal (IP) injection once every third day (Q3D) from Day 14 to 39 with Anti-p40 mAb solution.
Animals were observed daily (weight morbidity, survival, presence of diarrhea and/or bloody stool) to assess differences among treatment groups and/or possible toxicity resulting from the treatments.
Each mouse, under isoflurane anesthesia, underwent video endoscopy on Days 14, 28, and 42 using a small animal endoscope (Karl Storz Endoskope, Germany), to assess colitis severity. During each endoscopic procedure, still images and video were recorded to evaluate the extent of colitis and the response to treatment. Colitis severity and Stool consistency were scored using the methods described in Examples 1 and 2. Following endoscopy on day 42, all animals from each treatment group were sacrificed. Following euthanasia, bone marrow (from both femurs and tibias) were collected, lysed, and then snap frozen. The frozen tissue was stored at −80° C.
Weight Loss: Weight loss calculated as a percentage of the starting weight on Day 0 was recorded in all treatment groups.

[2] = Day 28, INS1007 1 mg/kg (Group 4)
[3] = Day 28, INS1007 3 mg/kg (Group 5)
[4] = Day 28, INS1007 10 mg/kg (Group 6)
[5] = Day 42, INS1007 1 mg/kg (Group 4)
[6] = Day 42, INS1007 3 mg/kg (Group 5)
[7] = Day 42, INS1007 10 mg/kg (Group 6)

Compound: Cn1c(=O)oc2ccc(-c3ccc(C[C@@H](C#N)NC(=O)[C@@H]4CNCCCO4)cc3)cc21 [INS1007, (2S)—N-{(1S)-1-cyano-2-[4-(3-methyl-2-oxo-2,3-dihydro-1,3-benzoxazol-5-yl)phenyl]ethyl}-1,4-oxazepane-2-carboxamide]
- bone marrow neutrophil activity (NE activity) (neutrophil elastase (NE); INS1007 1 mg/kg PO BID): significantly reduced
- bone marrow neutrophil activity (NE activity) (neutrophil elastase (NE); INS1007 10 mg/kg PO BID): significantly reduced
- reduction in mean endoscopy score as compared to vehicle control (Group 2) ([1]; Day 14, INS1007 3 mg/kg (Group 5)): 22.2%
- mean stool consistency score vs vehicle control (Group 2) [1, 2]: reductions
- reduction in mean endoscopy score as compared to vehicle control (Group 2) [1, 2]: 38.4%
- mean stool consistency score vs vehicle control (Group 2) [1, 3]: reductions
- reduction in mean endoscopy score as compared to vehicle control (Group 2) [1, 3]: 39.5%
- mean stool consistency score vs vehicle control (Group 2) [1, 4]: reductions
- reduction in mean endoscopy score as compared to vehicle control (Group 2) [1, 4]: 15.3%
- mean stool consistency score vs vehicle control (Group 2) [1, 5]: reductions
- reduction in mean endoscopy score as compared to vehicle control (Group 2) [1, 5]: 33.5%
- mean stool consistency score vs vehicle control (Group 2) [1, 6]: reductions
- reduction in mean endoscopy score as compared to vehicle control (Group 2) [1, 6]: 42.7%
- mean stool consistency score vs vehicle control (Group 2) [1, 7]: largest reductions
- reduction in mean endoscopy score as compared to vehicle control (Group 2) [1, 7]: 35.0%
- weight loss compared to vehicle control (Group 2), body weight carried forward ([1]; INS1007 3 mg/kg (Group 5), Days 0 to 42): reduced
- survival vs vehicle control ([1]; INS1007 3 mg/kg (Group 5), log-rank test): significantly improved
- survival ([1]; INS1007 3 mg/kg PO BID Day 14 to 41 (Group 5), Days 0 to 42, vehicle control 53.3%): 95.86%
